System: Colon26 tumor cells
Assay: Colon26 tumor growth, combination with cyclophosphamide (Example 8)
Format: in vivo
Settings: Colon26 in Balb/c mice; anti-SEMA4D 50 mg/kg IP weekly; cyclophosphamide 50 mg/kg IP days 12 and 20
Method: Experimental Design. 5×10^5 Colon26 tumor cells were implanted subcutaneously into the flank of female Balb/c mice. […] There were 20 mice per group. Tumors were measured with calipers 3×/week starting 5 days post implant. Animals were sacrificed when tumor volume reached 1000 mm^3.
Tumor growth was measured by calipers and measurements were used to calculate tumor volume using the formula (w^2×I)/2, where w=width, smaller measurement, and l=length, in mm, of the tumor.
Regression is the lack of palpable tumor, defined by a tumor measuring <50 mm^3 for at least two consecutive measurements.

O=P1(N(CCCl)CCCl)NCCCO1 (stereo not shown) [cyclophosphamide]
Tumor Growth Delay (TGD): 96%

Reference: patent US9243068B2, “Combination of SEMA-4D inhibitors and immunomodulators to inhibit tumors and metastases” (Vaccinex, Inc., priority 2013, dated 2016)
